Laboratory results taken from patent US20250135022A1, “METHODS FOR THE USE OF A B7-H3 ANTIBODY-DRUG CONJUGATE IN COMBINATION WITH A PD-1 X CTLA-4 BISPECIFIC MOLECULE” (MACROGENICS, INC., priority 2022, published 2025).

Key:
[1] = test system: MDA-MB-468 triple negative breast cancer cells; test: Anti-tumor activity against subcutaneously implanted MDA-MB-468 xenograft in SCID CES1c-KO mouse model; format: in vivo, SCID CES1c-KO mice; parameters: key to Anti-Tumor Activity: Highly Active: A T/C<10% is considered highly active; Active: a T/C≤42% is the minimum level of anti-tumor activity; Inactive: a T/C value of >42% is inactive
Method: In brief, ˜5×10^6 tumor cells (suspended in 1:1 media and MATRIGEL®) were subcutaneously implanted into the flank of female SCID CES1c-KO mice (Charles River Laboratories). When tumors had reached a volume of approximately 45-135 mm^3 (average 73 mm^3) on day 54, the mice were randomized and MGC018 or control vehicle were administered intravenously. In these studies, mice were administered either a single dose (1 mg/kg or 3 mg/kg, QW×1) of MGC018 or a fractionated dose of MGC018 (0.3 mg/kg or 1 mg/kg) once a week for 4 weeks (QW×4W). Vehicle was administered as a control on day 54. Tumors were measured twice weekly by orthogonal measurements with electronic calipers, with tumor volumes calculated as: (length×width×height)/2. The tumor volume (relative to control) was determined (“T/C”). A finding that the tumor volume of treated animals had decreased to ≤5 mm^3 during the study period was considered to denote a Complete Regression (“CR”) and a Partial Regression (“PR”) was defined when tumors were reduced by 50% or greater from day of dosing at any point during the study.

Calu-6 lung cancer cells = test: Anti-tumor activity against subcutaneously implanted Calu-6 xenograft in CD-1 Nude mouse model; format: in vivo, CD-1 Nude mice; parameters: key to Anti-Tumor Activity: Highly Active: A T/C<10% is considered highly active; Active: a T/C≤42% is the minimum level of anti-tumor activity; Inactive: a T/C value of >42% is inactive
Method: In brief, ˜5×10^6 tumor cells (suspended in 1:1 media and MATRIGEL®) were subcutaneously implanted into the flank of female CD-1 Nude mice (homozygous; Charles River Laboratories). When tumors had reached a volume of approximately 100-235 mm3 (average 172 mm^3) on day 21, the mice were randomized and MGC018 or control vehicle were administered intravenously. In these studies, mice were administered either a single dose (12 mg/kg, QW×1) of MGC018 or a fractionated dose of MGC018 (0.3 mg/kg, 1 mg/kg, or 3 mg/kg) once a week for 4 weeks (QW×4W). Vehicle was administered as a control on day 21. Tumors were measured twice weekly by orthogonal measurements with electronic calipers, with tumor volumes calculated as: (length×width×height)/2. The tumor volume (relative to control) was determined (“T/C”). A finding that the tumor volume of treated animals had decreased to ≤5 mm^3 during the study period was considered to denote a Complete Regression (“CR”) and a Partial Regression (“PR”) was defined when tumors were reduced by 50% or greater from day of dosing at any point during the study.

[2] = Population pharmacokinetic (PPK) modeling of clinical PK data from a dose escalation trial; format: in vivo, human
Method: To analyze the pharmacokinetics of single and fractionated dose administration of MGC018, population pharmacokinetic (PPK) modeling was performed on clinical PK data from a dose escalation trial of MGC018. The initial model was based on data from 52 patients (516 ADC observations, 495 payload observations) and later updated with data from a total of 122 patients. MGC018 concentration values below quantification limit (BQL) were excluded from the analysis but were retained (commented out) in the data set.
The PPK analysis was conducted via nonlinear mixed-effects modeling with INTERACTION option (FOCEI) method using the NONMEM software, Version 7.5.0 (ICON Development Solutions). A quasi-steady-state (QSS) approximation of the target-mediated drug disposition (TMDD) model was used to describe the observed ADC data. All clearance and volume parameters were scaled allometrically. Goodness-of-fit plots and diagnostics (including standard error of the estimates) were used to evaluate the model fit. Due to the small sample size (52 subjects) no formal covariate analysis was attempted, although dependence of model parameters on weight, dose, and sex was investigated using diagnostic plots or by inclusion in the model. Ability of the model to describe strong covariate relationships identified by the model was tested by stratifying the diagnostic plots and model evaluation procedures by the covariates of interest. Specifically, the diagnostics and the predictive check procedures were stratified by dose (cohort).
Of the models evaluated, a linear 2-compartment with individual random effects on clearance (CL), central volume (Vc), peripheral volume (VP), inter-compartment clearance (Q), and proportional residual variability) best described the observed ADC data and advanced for further development of the combined ADC-free payload model. The free payload was described by a 1-compartment model with random effects on free payload clearance (CLTOX) and volume (VTOX) parameters with the input (from ADC) to both the central and delay compartments, with the random effects on the delay rate constant Ktr, CLTOX, and VTOX. The final model (Model 151) was selected based on diagnostics and goodness-of-fit and used to estimate MGC018 PK parameters. According to the model, elimination from the ADC was directed to the free payload, to the delay and central free payload compartments. Approximately equal fractions of ADC elimination went to each of these compartments. […] Thus, the free payload kinetics were defined by the kinetics of ADC and delay between ADC elimination and input to the free payload central compartment

[3] = 0.3 mg/kg, QW × 4W, intravenous

Substance: MGC018: B7-H3-ADC: Light and Heavy Chain of anti-B7-H3 hmAb-A (SEQ ID NO:19, 20) conjugated via maleimide, valine-citrulline, para-aminobenzyloxycarbonyl linker to seco-DUBA payload
- % T/C at Day 70 [1, 3]: 64%
- Anti-Tumor Activity [1, 3]: Inactive
- CR (complete regression) [1, 3]: 0/5
- PR (partial regression) [1, 3]: 2/5
- % T/C at Day 70 ([1]; 1 mg/kg, QW × 1, intravenous): 26%
- Anti-Tumor Activity ([1]; 1 mg/kg, QW × 1, intravenous): Active
- CR (complete regression) ([1]; 1 mg/kg, QW × 1, intravenous): 0/5
- PR (partial regression) ([1]; 1 mg/kg, QW × 1, intravenous): 4/5
- % T/C at Day 70 ([1]; 1 mg/kg, QW × 4W, intravenous): 22%
- Anti-Tumor Activity ([1]; 1 mg/kg, QW × 4W, intravenous): Active
- CR (complete regression) ([1]; 1 mg/kg, QW × 4W, intravenous): 3/5
- PR (partial regression) ([1]; 1 mg/kg, QW × 4W, intravenous): 5/5
- % T/C at Day 70 ([1]; 3 mg/kg, QW × 1, intravenous): 12%
- Anti-Tumor Activity ([1]; 3 mg/kg, QW × 1, intravenous): Active
- CR (complete regression) ([1]; 3 mg/kg, QW × 1, intravenous): 5/5
- PR (partial regression) ([1]; 3 mg/kg, QW × 1, intravenous): 5/5
- anti-tumor activity of fractionated dose compared with single dose ([1]; fractionated 0.3 and 1 mg/kg QW×4W vs single 1 or 3 mg/kg QW×1): near equivalent anti-tumor activity
- % T/C at Day 44 (Calu-6 lung cancer cells; [3]): 78%
- Anti-Tumor Activity (Calu-6 lung cancer cells; [3]): Active
- CR (complete regression) (Calu-6 lung cancer cells; [3]): 0/7
- PR (partial regression) (Calu-6 lung cancer cells; [3]): 0/7
- % T/C at Day 44 (Calu-6 lung cancer cells; 1 mg/kg, QW × 4W, intravenous): 30%
- Anti-Tumor Activity (Calu-6 lung cancer cells; 1 mg/kg, QW × 4W, intravenous): Active
- CR (complete regression) (Calu-6 lung cancer cells; 1 mg/kg, QW × 4W, intravenous): 0/7
- PR (partial regression) (Calu-6 lung cancer cells; 1 mg/kg, QW × 4W, intravenous): 0/7
- % T/C at Day 44 (Calu-6 lung cancer cells; 3 mg/kg, QW × 4W, intravenous): 17%
- Anti-Tumor Activity (Calu-6 lung cancer cells; 3 mg/kg, QW × 4W, intravenous): Active
- CR (complete regression) (Calu-6 lung cancer cells; 3 mg/kg, QW × 4W, intravenous): 0/7
- PR (partial regression) (Calu-6 lung cancer cells; 3 mg/kg, QW × 4W, intravenous): 2/7
- % T/C at Day 44 (Calu-6 lung cancer cells; 12 mg/kg, QW × 1, intravenous): 6%
- CR (complete regression) (Calu-6 lung cancer cells; 12 mg/kg, QW × 1, intravenous): 0/7
- PR (partial regression) (Calu-6 lung cancer cells; 12 mg/kg, QW × 1, intravenous): 2/7
- anti-tumor activity of fractionated dose compared with single dose (Calu-6 lung cancer cells; fractionated 0.3, 1 and 3 mg/kg QW×4W vs single 12 mg/kg QW×1): near equivalent anti-tumor activity
- central volume (V) ([2]; ADC, typical 75 kg subject): 3.72 L
- clearance (CL) ([2]; ADC, typical 75 kg subject): 1.68 L/day
- distribution half-life (t1/2 dist) ([2]; ADC, typical 75 kg subject): 35.5 h
- inter-compartment clearance (Q) ([2]; ADC, typical 75 kg subject): 0.0549 L/day
- peripheral volume (Vp) ([2]; ADC, typical 75 kg subject): 0.700 L
- terminal half-life (t1/2 term) ([2]; ADC, typical 75 kg subject): 220 h
- half-life corresponding to delay rate constant ([2]; Model 151): 130 h
- delay rate constant (Ktr) ([2]; delay between ADC elimination and input to free payload central compartment, Model 151): 0.128 day⁻¹
- free payload elimination rate constant KTOX=CLTOX/VTOX ([2]; free payload, Model 151): 52.5 day⁻¹
- half-life corresponding to free payload elimination rate constant ([2]; free payload, Model 151): about 20 minutes
